This note sets out measurements from patent US20250163038A1, “CBL-B MODULATORS AND USES THEREOF” (Nimbus Clio, Inc., priority 2021, published 2025).

The term IC50 denotes the midpoint of a concentration-inhibition curve.

The target of test [1] is Recombinant human Cbl-b (aa 36-427) (Homo sapiens, UniProt Q13191). In words: Cbl-b Biochemical Assay (TR-FRET). To be noted: read-out: TR-FRET hCbl-b IC50. In general terms: In TR-FRET formats the signal depends on donor and acceptor labels being close together.
Chain of Recombinant human Cbl-b (aa 36-427) (Q13191 36-427): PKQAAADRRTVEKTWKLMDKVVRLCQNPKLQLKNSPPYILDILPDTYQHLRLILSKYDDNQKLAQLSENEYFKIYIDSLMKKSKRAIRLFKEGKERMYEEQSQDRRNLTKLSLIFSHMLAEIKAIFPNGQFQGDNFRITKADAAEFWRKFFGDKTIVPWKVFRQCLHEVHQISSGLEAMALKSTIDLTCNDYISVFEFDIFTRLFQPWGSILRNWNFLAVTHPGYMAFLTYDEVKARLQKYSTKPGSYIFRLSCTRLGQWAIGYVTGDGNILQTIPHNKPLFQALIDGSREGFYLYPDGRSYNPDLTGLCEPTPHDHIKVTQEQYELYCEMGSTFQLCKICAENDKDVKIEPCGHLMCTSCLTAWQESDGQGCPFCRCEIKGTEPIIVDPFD
In test [2] the target is T1, Recombinant human c-Cbl (aa 47-435) (Homo sapiens, UniProt P22681).
T1 sequence (P22681 47-435): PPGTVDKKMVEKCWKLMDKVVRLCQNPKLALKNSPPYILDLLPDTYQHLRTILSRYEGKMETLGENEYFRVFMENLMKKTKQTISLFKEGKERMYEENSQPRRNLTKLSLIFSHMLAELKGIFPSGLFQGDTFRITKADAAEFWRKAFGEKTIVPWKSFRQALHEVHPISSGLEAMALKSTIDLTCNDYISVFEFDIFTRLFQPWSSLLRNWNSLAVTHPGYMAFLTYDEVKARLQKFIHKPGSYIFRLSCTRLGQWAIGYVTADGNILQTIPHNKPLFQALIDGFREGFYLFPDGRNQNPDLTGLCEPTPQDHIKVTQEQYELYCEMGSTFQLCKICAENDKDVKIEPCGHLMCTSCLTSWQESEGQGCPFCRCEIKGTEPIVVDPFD
In words: c-Cbl Biochemical Assay (TR-FRET). The note with it: hc-Cbl Biochemical Assay (TR-FRET); read-out: TR-FRET hcCbl IC50.

With `Cn1cnnc1-c1ccccc1-c1cccc(-c2nc3cc(C(=O)O)cc(C(F)(F)F)c3o2)c1` [Example H-1, 2-(2′-(4-Methyl-4H-1,2,4-triazol-3-yl)-[1,1′-biphenyl]-3-yl)-7-(trifluoromethyl)benzo[d]oxazole-5-carboxylic Acid], the IC50 in test [1] and in test [2] was 10 to 50 µM in each case.

As to `COC(=O)c1cc(C(F)(F)F)c2oc(-c3cccc([C@]4(c5nncn5C)C[C@@H](C)C4)c3)nc2c1` [ADC-3, Methyl 2-(3-((1s,3s)-3-methyl-1-(4-methyl-4H-1,2,4-triazol-3-yl)cyclobutyl)phenyl)-7-(trifluoromethyl)benzo[d]oxazole-5-carboxylate], the IC50 in test [1] was 1 to 10 µM; in test [2], 10 to 50 µM.

Consider `CCNc1cc(-c2c(-c3nncn3C)cnn2C)cc(-c2cc(C(F)(F)F)c[nH]c2=O)n1` [ACQ-3, 6-(Ethylamino)-4-(1-methyl-4-(4-methyl-4H-1,2,4-triazol-3-yl)-1H-pyrazol-5-yl)-5′-(trifluoromethyl)-[2,3′-bipyridin]-2′(1′H)-one], for which the IC50 in test [1] is 0.2 to 1 µM; in test [2], 1 to 10 µM.

On to `COC(=O)c1cc(OC)c2oc(-c3cccc([C@]4(c5nncn5C)C[C@@H](C)C4)c3)nc2c1` [AEA-1, Methyl 7-methoxy-2-{3-[(1r,3s)-3-methyl-1-(4-methyl-1,2,4-triazol-3-yl)cyclobutyl]phenyl}-1,3-benzoxazole-5-carboxylate], for which the IC50 in test [1] and in test [2] was 10 to 50 µM in each case.

`Cn1cnnc1-c1cc(F)ccc1-c1cccc(-c2nc3cc(C(=O)N[C@@H]4CCC[C@@H]4O)cc(C(F)(F)F)c3o2)c1` [DB-2, 2-(4′-Fluoro-2′-(4-methyl-4H-1,2,4-triazol-3-yl)-[1,1′-biphenyl]-3-yl)-N-((1R,2S)-2-hydroxycyclopentyl)-7-(trifluoromethyl)benzo[d]oxazole-5-carboxamide]: the concentration for half-maximal inhibition (IC50) lay in the range of 0.2 to 1 µM in test [1] and 1 to 10 µM in test [2].

Regarding `C=Cc1cc(C(F)(F)F)c2oc(-c3cccc(-c4ccc(F)cc4-c4nncn4C)c3)nc2c1` (racemic) [DL-1, 2-(4′-Fluoro-2′-(4-methyl-4H-1,2,4-triazol-3-yl)-[1,1′-biphenyl]-3-yl)-7-(trifluoromethyl)-5-vinylbenzo[d]oxazole], the IC50 was 0.2 to 1 µM in test [1] and 1 to 10 µM in test [2].

As for `Cn1cnnc1-c1cc(F)ccc1-c1cc(Cl)nc(-c2nc3cc(CO)cc(C(F)(F)F)c3[nH]2)c1` [ADX-3, (2-{6-Chloro-4-[4-fluoro-2-(4-methyl-1,2,4-triazol-3-yl)phenyl]pyridin-2-yl}-7-(trifluoromethyl)-1H-1,3-benzodiazol-5-yl)methanol], the IC50 in test [1] and in test [2] was 10 to 50 µM throughout.

Turning to `COC(=O)c1cc(C(F)(F)F)c2oc(-c3cccc(-c4ccccc4-c4nncn4C)c3)nc2c1` [Example G-1, Methyl 2-(2′-(4-methyl-4H-1,2,4-triazol-3-yl)-[1,1′-biphenyl]-3-yl)-7-(trifluoromethyl)benzo[d]oxazole-5-carboxylate], the IC50 in test [1] and in test [2] was 10 to 50 µM each time.

As for `C[C@H]1CCCN(C(=O)c2cc(C(F)(F)F)c3oc(-c4cccc(-c5ccccc5-c5nncn5C)c4)nc3c2)C1` [Example I-2, (S)-(2-(2′-(4-Methyl-4H-1,2,4-triazol-3-yl)-[1,1′-biphenyl]-3-yl)-7-(trifluoromethyl)benzo[d]oxazol-5-yl)(3-methylpiperidin-1-yl)methanone], the IC50 in test [1] and in test [2] was 10 to 50 µM each time.

For the compound `Cn1cnnc1CC1(c2cccc(-c3nc4ccc(Br)c(C(F)(F)F)c4[nH]3)c2)COC1` [BA-1, 6-Bromo-2-(3-(3-((4-methyl-4H-1,2,4-triazol-3-yl)methyl)oxetan-3-yl)phenyl)-7-(trifluoromethyl)-1H-benzo[d]imidazole], the IC50 in test [1] lay within 1 to 10 µM; in test [2] it was 10 to 50 µM.

`Cn1cnnc1-c1cc(F)ccc1-c1cccc(-c2nc3cccc(C(F)(F)F)c3o2)c1` [Example S-1, 2-(4′-Fluoro-2′-(4-methyl-4H-1,2,4-triazol-3-yl)-[1,1′-biphenyl]-3-yl)-7-(trifluoromethyl)benzo[d]oxazole]: the results for the IC50 in test [1] and in test [2] were 0.2 to 1 µM and 1 to 10 µM, respectively.

For the compound `Cn1cnnc1-c1cc(F)ccc1-c1cccc(-c2nc3cc(CO)ccc3o2)c1` [AJ-3, (2-(4′-Fluoro-2′-(4-methyl-4H-1,2,4-triazol-3-yl)-[1,1′-biphenyl]-3-yl)benzo[d]oxazol-5-yl)methanol], the IC50 in test [1] and in test [2] was 10 to 50 µM throughout.

`Cn1cnnc1-c1cc(F)ccc1-c1cc(-c2nc3cc(CO)ccc3[nH]2)nc(C2CC2)c1` [AEE-1, (2-(6-Cyclopropyl-4-(4-fluoro-2-(4-methyl-4H-1,2,4-triazol-3-yl)phenyl)pyridin-2-yl)-1H-benzo[d]imidazol-5-yl)methanol]: the IC50 in test [1] and in test [2] was 1 to 10 µM each time.

With `COC(OC)c1ccc2oc(-c3cccc(-c4ccc(F)cc4-c4nncn4C)c3)nc2c1` [AT-1, 5-(Dimethoxymethyl)-2-(4′-fluoro-2′-(4-methyl-4H-1,2,4-triazol-3-yl)-[1,1′-biphenyl]-3-yl)benzo[d]oxazole], the IC50 in test [1] and in test [2] was 10 to 50 µM throughout.

Consider `Cn1cnnc1CC1(c2cccc(-c3nc4cc(CNc5nccn5C)cc(C(F)(F)F)c4[nH]3)c2)COC1` [ACC-1, 1-Methyl-N-((2-(3-(3-((4-methyl-4H-1,2,4-triazol-3-yl)methyl)oxetan-3-yl)phenyl)-7-(trifluoromethyl)-1H-benzo[d]imidazol-5-yl)methyl)-1H-imidazol-2-amine], for which the figures for the IC50 in test [1] and in test [2] were 0.2 to 1 µM and 1 to 10 µM, respectively.

Take `Cn1cnnc1CC1(c2cccc(-c3nc4cc(CN5CC[C@H](O)C5)cc(C(F)(F)F)c4[nH]3)c2)COC1` [ACL-1, (S)-1-((2-(3-(3-((4-Methyl-4H-1,2,4-triazol-3-yl)methyl)oxetan-3-yl)phenyl)-7-(trifluoromethyl)-1H-benzo[d]imidazol-5-yl)methyl)pyrrolidin-3-ol]: the IC50 lay in the range of 0.2 to 1 µM in test [1] and 1 to 10 µM in test [2].

Take `Cn1cnnc1-c1ccccc1-c1cccc(-c2nc3ccc(N)c(C(F)(F)F)c3[nH]2)c1` [BE-2, 2-(2′-(4-Methyl-4H-1,2,4-triazol-3-yl)-[1,1′-biphenyl]-3-yl)-7-(trifluoromethyl)-1H-benzo[d]imidazol-6-amine]: the IC50 in test [1] and in test [2] was 10 to 50 µM each time.

As to `Cn1cnnc1CC1(c2cccc(-c3cc(C4CC4)c[nH]c3=O)c2)COC1` [ABX-3, 5-Cyclopropyl-3-(3-(3-((4-methyl-4H-1,2,4-triazol-3-yl)methyl)oxetan-3-yl)phenyl)pyridin-2(1H)-one], the IC50 in test [1] and in test [2] was 10 to 50 µM in each case.

`Cn1cnnc1-c1ccccc1-c1cccc(-c2nc3cc(CN(C(=O)OC(C)(C)C)[C@@H]4CCC[C@H]4O)cc(C(F)(F)F)c3o2)c1` [Example M-5, tert-Butyl ((1R,2R)-2-hydroxycyclopentyl)((2-(2′-(4-methyl-4H-1,2,4-triazol-3-yl)-[1,1′-biphenyl]-3-yl)-7-(trifluoromethyl)benzo[d]oxazol-5-yl)methyl)carbamate]: the IC50 was 0.2 to 1 µM in test [1] and 10 to 50 µM in test [2].

As for `CC(Cc1nncn1C)c1cccc(-c2nc3ccc(OCCN(C)C)c(C(F)(F)F)c3[nH]2)c1` (centres unmarked) [AW-4, N,N-dimethyl-2-((2-(3-(1-(4-methyl-4H-1,2,4-triazol-3-yl)propan-2-yl)phenyl)-7-(trifluoromethyl)-1H-benzo[d]imidazol-6-yl)oxy)ethan-1-amine], the IC50 in test [1] and in test [2] was 10 to 50 µM throughout.

Regarding `COc1cc(CO)cc2nc(-c3cccc([C@]4(c5nncn5C)C[C@@H](C)C4)c3)oc12` [AEB-1, (7-Methoxy-2-{3-[(1r,3s)-3-methyl-1-(4-methyl-1,2,4-triazol-3-yl)cyclobutyl]phenyl}-1,3-benzoxazol-5-yl)methanol], the IC50 in test [1] and in test [2] was 1 to 10 µM in each case.

As for `Cn1cnnc1CC1(c2cccc(-c3nc4cc(CN5CC[C@@H](O)C5)cc(C(F)(F)F)c4[nH]3)c2)COC1` [ACB-1, (R)-1-((2-(3-(3-((4-Methyl-4H-1,2,4-triazol-3-yl)methyl)oxetan-3-yl)phenyl)-7-(trifluoromethyl)-1H-benzo[d]imidazol-5-yl)methyl)pyrrolidin-3-ol], the IC50 in test [1] fell in the range of 0.2 to 1 µM; in test [2], 10 to 50 µM.

For the compound `CN(C)CCOc1ccc2nc(-c3cccc(C4(Cc5nncn5C)COC4)c3)[nH]c2c1C(F)(F)F` [AZ-1, N,N-Dimethyl-2-((2-(3-(3-((4-methyl-4H-1,2,4-triazol-3-yl)methyl)oxetan-3-yl)phenyl)-7-(trifluoromethyl)-1H-benzo[d]imidazol-6-yl)oxy)ethan-1-amine], the IC50 in test [1] and in test [2] was 10 to 50 µM each time.

For the compound `Cn1cnnc1-c1cc(C#N)ccc1-c1cccc(-c2nc3cccc(C(F)(F)F)c3[nH]2)c1` [CB-1, 2-(4-Methyl-4H-1,2,4-triazol-3-yl)-3′-(4-(trifluoromethyl)-1H-benzo[d]imidazol-2-yl)-[1,1′-biphenyl]-4-carbonitrile], the IC50 in test [1] and in test [2] was 10 to 50 µM throughout.

With `Cn1cnnc1CC1(c2cccc(-c3nc4cccc(C(F)(F)F)n4n3)c2)COC1` [ABC-4, 2-(3-(3-((4-Methyl-4H-1,2,4-triazol-3-yl)methyl)oxetan-3-yl)phenyl)-5-(trifluoromethyl)-[1,2,4]triazolo[1,5-a]pyridine], the IC50 in test [1] and in test [2] was 10 to 50 µM in each case.
